According to patent US9175055B2, “Use of fibromodulin and lumican for increasing muscle mass” (ASSOCIATION FRANCAISE CONTRE LES MYOPATHIES, priority 2011, dated 2015):
Where “and” joins values, the source holds several entries; their conditions need not be identical. Identical values can stand only once.

Tests used:
mdx mice [1] = assay: Comparative muscle hypertrophy 18 days after intramuscular injection of peptides in dystrophic mdx mice; format: in vivo; conditions: for Hypertrophy %: 18 days after IM injection, average of five mdx mice, TAG versus TAD; for increase in muscular hypertrophy, factor compared to decorin: day 18, mdx mice
Procedure: (§1) Mdx mice (C57BL/10ScSn-DmD^max/J) from colonies maintained at Genethon. Mice aged at least six weeks were used. All experiments were performed in accordance with European ethical rules regarding the use of animals for experimental research.
(§2) Intramuscular injection is performed on animals anesthetized at the tibialis anterior muscle (TA). The injected volume was around 20-35 μl. The injection is performed in the middle of TA Left (TAG). An equal volume of NaCl 150 mM/15 μM ZnCl2 was systematically injected into the right anterior tibialis (TAD) to serve as a control. After a specified number of days after the injection, the TAD and TAG were taken after sacrificing the mice, which were weighed and frozen for histological studies.
(§3) The peptide fibromodulin (Fmod, SEQ ID NO: 2) and lumican (mLumican, SEQ ID NO: 5) were dissolved in water and stored at −80° C. For the injections, the preparation procedure is as follows: 24-40 hours before the injection, the desired quantity of peptide is removed from the stock solution and mixed with a solution of zinc chloride (ZnCl2) and 150 mM NaCl so as to have a final concentration of 15 μM of zinc. The peptide was stored at 4° C. until injection.
4/In vivo Comparative Study of Muscle Hypertrophy 18 Days after Injection of Dystrophic mdx Mice with Decorin Peptide (MdCN 31-71, SEQ ID NO: 75), Fibromodulin (mFmod 69-101) or lumican (mLum 30-62):
The TAD and TAG muscles were removed 18 days after injection of the peptides, and then weighed. The experiment was performed on five separate mice.

mature myostatin = target: T1, mature myostatin (Mus musculus, UniProt O08689); assay: ELISA-type test of direct interaction of biotinylated fibromodulin peptides with coated myostatin; format: binding; conditions: FIG. 3
T1 sequence (O08689 268-376): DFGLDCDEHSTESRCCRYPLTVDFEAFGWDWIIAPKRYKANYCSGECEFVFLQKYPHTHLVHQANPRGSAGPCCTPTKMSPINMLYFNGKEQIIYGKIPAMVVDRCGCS
Description: The ELISA test (Enzyme Linked ImmunoSorbent Assay) is a test for detecting and/or assaying a protein present in a biological fluid. In the technique known as “sandwich” assay, the wells of a microtiter plate are covered with a capture antibody capable of binding specifically to the desired antigen. During this operation called “coating”, the capture antibody binds to the plastic of the wells by electrostatic interaction. The capture antibody ensures the specificity of the test. The solution to be tested is then deposited into the wells of the microtiter plate and, if the desired antigen is present, it will bind specifically to the capture antibody. A second antibody, the tracer antibody, capable of binding to the captured antigen is then added to the wells, and the unbound tracer antibodies are eliminated by rinsing. The tracer antibody is coupled to an enzyme catalyzing the formation of a colored product.
The principle of this technique was used to study the direct interaction of the mature myostatin with the peptides 69-101 Fmod Biotin and 69-101 Fmod Biotin mutated (see sequences below). For this, 3 μl of myostatin at a concentration of 100 ng/μl are taken up in 50 μl of carbonate buffer and added to each well of the assay plate (R&D Systems DY990). After an overnight incubation at 4° C., the plate is washed with 100 μl of PBS-Tween (0.05% Tween 20), then the blocking step to saturate non-specific sites is carried out for 2 hours at room temperature with 100 μl of PBS and 6% of milk per well. Five successive washes with 200 μl of PBS-Tween (0.05% Tween 20) are performed and increasing amounts of biotinylated fibromodulin peptides are then deposited (100 μl final in PBS) and the plate is incubated for 1 hour at 37° C. For the positive control, an antibody of goat anti-myostatin (≠AF788, R&D Systems), which was deposited in the control wells and incubated for 1 hour at 1/100th (0.1 mg/ml) was […]. The wells were then washed 5 times with PBS-Tween (0.05% Tween 20). To detect binding of the biotinylated peptides to MSTN, streptavidin-HRP (≠N100, Pierce) was used at 1/20,000th. was added to the wells. For the controls points with the goat anti-myostatin antibody, an HRP-marked (≠ab6885, Abcam) polyclonal secondary donkey anti-goat antibody was added (at 1/4000th)). After five washes, adding the peroxidase substrate, the TMB Substrate Reagent Set (Tetramehylbenzidine, OptEIA, ≠555214) allows the obtention of a colored reaction proportional to the quantity of HRP present in the wells. The reaction is stopped after 20 minutes by addition of sulfuric acid 2N, and the plate is read at 450 nm on a Discovery HT-R spectrophotometer (Bio-TEK).
Buffer Composition: 0.1 M carbonate buffer: 4.2 g NaHCO3, 1.78 g of […] in 500 ml of H20 MilliQ, pH 9,5. Storage at 4° C.

mdx mice [2] = assay: Muscle weight on D20 after intramuscular injection into Tibialis Anterior of mdx mice; format: in vivo; conditions: D20, individual mdx mice
Procedure: as §1, §2
as §3, with “injection. […]” for “injection.”
On D20, the mice were sacrificed and the weight of the TAG and TAD muscles was measured.

[3] = target: T2, recombinant murine myostatin (Mus musculus, UniProt O08689); assay: Inhibition of myostatin activity, pGL3-(CAGA)12-Luc reporter in HEK293T cells; format: cell-based; conditions: 2.5 nM myostatin, FIG. 1 and 2
T2 sequence (O08689 268-376): T1 sequence (O08689 268-376)
Description: The plasmidic construction pGL3-(CAGA)12-firefly luciferase (notated pGL3-(CAGA)12-Luc) obtained by MTA of the Pr. Carl-Henrik Heldin (Ludwig Institute for Cancer Research, Sweden) contains 12 CAGA copies of the consensus SBE (Smad Binding Element) consensus sequence and allows to indirectly measure the binding of myostatin to its receptor. Indeed, when myostatin binds to the receptor Activin IIb, the Smad 3 and 4 proteins are activated and will bind to the 12 CAGA copies. The promoter of the cassette pGL3-(CAGA)12-Luc is thus activated, which results in luciferase production. The myostatin/Activin IIb binding can be followed, therefore, by measuring the luciferase.
The ability of the peptides to inhibit the in vitro activity of the myostatin has been evaluated on embryonic human kidney cells 293T by means of the pGL3-(CAGA)12-Luc construction. For this, 350,000 293T cells were placed per well in a 24-well plate. After 24 hours of culture, the cells were transfected with a mixture of 8 μl de PEI (PEI 25 kDa; Sigma) and 2 μg of plasmide pGL3-(CAGA)12-Luc/well. […] Twenty-four hours after transfection, 2.5 nM of recombinant murine myostatin, mixed or not mixed with various quantities of fibromodulin or lumican peptides were added to each well. […] Twenty-four hours after incubation, the cells were lysed, then collected to be assayed for luciferase activity and the quantity of protein.

Which Hypertrophy % (mdx mice [1]) does the source give for “mDCN 31-71: Decorin Peptide (MdCN 31-71, SEQ ID NO: 75), comparator from prior art WO 2010/106295 (DEASGIIPYDPDNPLISMCPYRCQCHLRVVQCSDLGLDKVP; 31-71 mouse decorin fragment) [reference compound]” here?
Its Hypertrophy % is 10.02 ± 8.3%.

With “Biotine-PPPEPRDCPQEADAPPNFPTAMYADNRNLKYLP- CONH2 [mutated biotin mFmod peptide]” as the substance, how does the “interaction with myostatin (absorbence at 450 nm)” value (shortened to “interaction with myostatin”) (mature myostatin; in the presence of zinc) read?
Its value is “no interaction is visible”.

Which “interaction with myostatin” value (mature myostatin; in the absence of zinc) does the source give for “PPPEPRDCPQECDCPPNFPTAMYCDNRNLKYLP (69-101 mouse fibromodulin Fmod) [mFmod 69-101, fragment corresponding to residues 69-101 of murine fibromodulin]” here?
Its value is “no interaction is seen”.

What about the “amount of peptide from which a plateau of absorbence is obtained” value (mature myostatin; in the presence of zinc) of the same substance?
Its value is at least 4.2 µg.

What about the Hypertrophy % (mdx mice [1]) of the same substance?
The Hypertrophy % was 29.34 ± 15.76%.

What about the “increase in muscular hypertrophy, factor compared to decorin” value (mdx mice [1]) of the same substance?
The value was 2.9.

And the “Weight of injected muscle (TAG)” value (mdx mice [2]; 50 μg peptide + 15 μM ZnCl2 IM in left Tibialis Anterior)?
Its value is 66.5 mg and 75.4 mg and 74.6 mg and 65.2 mg and 73.9 mg.

What about the “Growth (TAG versus control TAD)” value (mdx mice [2]; 50 μg peptide + 15 μM ZnCl2 IM) of the same substance?
Its value is 22.24% and 5.31% and 19.94% and 5.33% and 12.31%.

And the “induction of the pCAGA-Luc promoter (inhibition of myostatin activity)” value [3]?
The value was “net inhibition of the promoter in a dose-dependent manner”.

For “YGQISPNCAPECNCPHSYPTAMYCDDLKLKSVP (30-62 mouse lumican) [mLum 30-62, fragment corresponding to residues 30 to 62 of murin lumican]”, which Hypertrophy % (mdx mice [1]) is on record?
Its Hypertrophy % is 37.26 ± 14.69%.

And the “increase in muscular hypertrophy, factor compared to decorin” value (mdx mice [1])?
Its value is 3.7.

What about the “induction of the pCAGA-Luc promoter (inhibition of myostatin activity)” value [3] of the same substance?
The value was “net inhibition of the promoter in a dose-dependent manner”.

How did the “interaction with myostatin” value (mature myostatin; in the presence of zinc) turn out when “Biotine-PPPEPRDCPQECDCPPNFPTAMYCDNRNLKYLP-CONH2 [biotinylated mFmod 69-101]” was run?
The value was “direct interaction takes place”.
